Where a SMILES comes first, the peptide text is derived from it. Bridges are numbered along the chain shown (N, C = ends). Where no end group is shown, it is not given here. [ ]: non-standard residue; d: D form. The star is where a group is joined. Palmitoyl = CCCCCCCCCCCCCCCC(=O)*; Nle = CCCC[C@H](N)C(=O)O; Aib = CC(C)(N)C(=O)O

Experiment [1] has as its target T1, hGLP-1R (Homo sapiens, UniProt P43220).
T1 construct: expressed in transfected cells; host or cells: CHO
The experiment can be described thus: hGLP-1R-mediated cAMP induction assay in CHO cell line.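 On all read-outs here: CHO cells expressing human GLP-1R, treated 30 min at 37 °C, intracellular cAMP measured by competitive fluorescent immunoassay and converted via a cAMP standard curve.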 Format: cell-based. Conditions: for EC50 / GLP-1 Receptor Relative Potency: Table 3; for EC50: CHO hGLP1R cells; for GLP-1 Receptor Relative Potency: against native GLP-1.
Text: The cAMP in the sample or standard competes with horseradish peroxidase (HRP)-labeled cAMP conjugate for binding sites on the anti-cAMP antibodies. In the absence of cAMP, most of the HRP-cAMP conjugate is bound to the antibody. Increasing concentrations of cAMP competitively decrease the amount of bound conjugate, thus decreasing measured HRP activity.
Assay kit: CatchPoint™ Cyclic-AMP Fluorescent Assay Kit (Molecular Devices, Product # R8088)
Cell lines: CHO hGLP1R, CHO hGIPR
Cell seeding: CHO hGLP1R or CHO hGIPR cells: 10,000 cells/well/100 uL at 37° C. 5% CO2 overnight.
Gently aspirate off media and wash the cells with KRBG Buffer, 100 uL/well.
Incubate the plate for 10 min at room temperature. Then add the KRBG buffer with 3× final concentration of the tested samples (5-foled series diluted from 5,000 nM), 50 uL/well. Incubate the plate at 37° C. 5% CO2 for 30 min.
Add 50 uL of Lysis buffer to each well and put the plate on a shaker for 10 min.
Place 40 uL of samples and analyze in appropriate wells. And test the cAMP concentration in each sample by following the manufacture's instruction.
Detect the fluorescence signal at Ex: 490 nm and Em: 530 nm. Transfer the FI signal to cAMP concentration by the cAMP standard curve. The Dose-response curve and EC50 were obtained by logistic fitting of Origin 8.

Experiment [2] addresses T2, hGIPR (Homo sapiens, UniProt P48546).
T2 construct: expressed in transfected cells; host or cells: CHO
T2 sequence (P48546 22-466): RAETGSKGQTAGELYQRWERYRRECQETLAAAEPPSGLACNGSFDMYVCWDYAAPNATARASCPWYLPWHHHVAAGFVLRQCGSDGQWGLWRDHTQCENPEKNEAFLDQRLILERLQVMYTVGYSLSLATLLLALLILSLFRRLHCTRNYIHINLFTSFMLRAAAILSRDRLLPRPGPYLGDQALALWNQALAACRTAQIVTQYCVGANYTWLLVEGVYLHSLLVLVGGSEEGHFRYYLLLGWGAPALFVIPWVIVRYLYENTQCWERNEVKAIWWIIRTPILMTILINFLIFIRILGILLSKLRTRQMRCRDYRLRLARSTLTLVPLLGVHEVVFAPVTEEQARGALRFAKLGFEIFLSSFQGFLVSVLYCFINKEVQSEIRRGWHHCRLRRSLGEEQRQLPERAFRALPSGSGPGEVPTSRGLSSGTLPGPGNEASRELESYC
The experiment can be described thus: hGIPR-mediated cAMP induction assay in CHO cell line. Conditions: for EC50 / GIP Receptor Relative Potency: Table 3; for EC50: CHO hGIPR cells; for GIP Receptor Relative Potency: against native GIP. Type of experiment: cell-based.

T1 sequence (P43220 24-463): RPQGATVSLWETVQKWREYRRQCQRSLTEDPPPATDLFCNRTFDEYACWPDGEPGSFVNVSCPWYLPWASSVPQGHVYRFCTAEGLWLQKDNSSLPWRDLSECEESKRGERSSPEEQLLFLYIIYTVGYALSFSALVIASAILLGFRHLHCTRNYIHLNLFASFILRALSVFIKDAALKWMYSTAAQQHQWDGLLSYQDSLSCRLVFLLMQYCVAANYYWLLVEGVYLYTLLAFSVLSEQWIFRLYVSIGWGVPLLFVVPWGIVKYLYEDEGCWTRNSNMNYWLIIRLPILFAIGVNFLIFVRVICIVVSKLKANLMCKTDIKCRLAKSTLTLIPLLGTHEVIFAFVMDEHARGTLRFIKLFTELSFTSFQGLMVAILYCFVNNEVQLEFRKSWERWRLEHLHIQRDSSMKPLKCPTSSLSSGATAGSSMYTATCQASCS

Broadly, the EC50 is the concentration that produces a half-maximal response. Low values mean greater potency, high ones weaker potency. Regarding `CCCCCCCCCCCCCCCC(=O)NCCCC[C@H](NC(=O)[C@H](CO)NC(=O)[C@@H]1CCCN1C(=O)[C@@H]1CCCN1C(=O)[C@@H]1CCCN1C(=O)[C@H](C)NC(=O)CNC(=O)[C@H](CO)NC(=O)[C@H](CO)NC(=O)[C@@H]1CCCN1C(=O)CNC(=O)CNC(=O)[C@H](CCCCN)NC(=O)[C@@H](NC(=O)[C@H](CC(C)C)NC(=O)[C@H](Cc1c[nH]c2ccccc12)NC(=O)[C@H](CS)NC(=O)[C@@H](NC(=O)[C@H](Cc1ccccc1)NC(=O)[C@H](CCC(=O)O)NC(=O)[C@H](CCCNC(=N)N)NC(=O)[C@@H](NC(=O)[C@H](C)NC(=O)[C@H](CCC(=O)O)NC(=O)[C@H](CCCCN)NC(=O)[C@H](CCC(=O)O)NC(=O)[C@H](CCSC)NC(=O)[C@H](Cc1ccc(O)cc1)NC(=O)[C@@H](NC(=O)[C@H](CO)NC(=O)[C@H](Cc1ccc(O)cc1)NC(=O)[C@H](CC(=O)O)NC(=O)[C@H](CO)NC(=O)[C@@H](NC(=O)[C@H](Cc1ccccc1)NC(=O)[C@@H](NC(=O)CNC(=O)[C@H](CCC(=O)O)NC(=O)C(C)(C)NC(=O)[C@@H](N)Cc1ccc(O)cc1)[C@@H](C)O)[C@@H](C)O)[C@@H](C)CC)C(C)C)[C@@H](C)CC)C(C)C)C(N)=O` [Compound 096] (H-Y[Aib]EGTFTSDYSIYMEKEAVREFICWLVKGGPSSGAPPPSK(Palmitoyl)-NH2), in experiment [1], the EC50 was found to be 0.253 nM and the “GLP-1 Receptor Relative Potency” value is reported as 404.7. In experiment [2], the EC50 turned out to be 0.1 nM and the “GIP Receptor Relative Potency” value worked out at 42.
Turning to `CCCCCCCCCCCCCCCC(=O)NCCCC[C@H](NC(=O)[C@H](CO)NC(=O)[C@@H]1CCCN1C(=O)[C@@H]1CCCN1C(=O)[C@@H]1CCCN1C(=O)[C@H](C)NC(=O)CNC(=O)[C@H](CO)NC(=O)[C@H](CO)NC(=O)[C@@H]1CCCN1C(=O)CNC(=O)CNC(=O)[C@H](CCCCN)NC(=O)[C@@H](NC(=O)[C@H](CC(C)C)NC(=O)[C@H](Cc1c[nH]c2ccccc12)NC(=O)[C@@H]1CCC(=O)NCCCC[C@H](NC(=O)[C@@H](NC(=O)[C@H](C)NC(=O)[C@H](CCC(=O)O)NC(=O)[C@H](CCCCN)NC(=O)[C@H](CCC(=O)O)NC(=O)[C@H](CCSC)NC(=O)[C@H](Cc2ccc(O)cc2)NC(=O)[C@@H](NC(=O)[C@H](CO)NC(=O)[C@H](Cc2ccc(O)cc2)NC(=O)[C@H](CC(=O)O)NC(=O)[C@H](CO)NC(=O)[C@@H](NC(=O)[C@H](Cc2ccccc2)NC(=O)[C@@H](NC(=O)CNC(=O)[C@H](CCC(=O)O)NC(=O)C(C)(C)NC(=O)[C@@H](N)Cc2ccc(O)cc2)[C@@H](C)O)[C@@H](C)O)[C@@H](C)CC)C(C)C)C(=O)N[C@@H](CCC(=O)O)C(=O)N[C@@H](Cc2ccccc2)C(=O)N[C@@H]([C@@H](C)CC)C(=O)N1)C(C)C)C(N)=O` [Compound 101] (H-Y[Aib]EGTFTSDYSIYMEKEAVKEFIEWLVKGGPSSGAPPPSK(Palmitoyl)-NH2; lactam 20-24), in experiment [1], the EC50 worked out at 0.056 nM and the “GLP-1 Receptor Relative Potency” value is 628.6. Also, in experiment [2], a half-maximal effect (EC50) was put at 0.021 nM and the “GIP Receptor Relative Potency” value is on record as 328.6.
On to `CC[C@H](C)[C@H](NC(=O)[C@H](Cc1ccccc1)NC(=O)[C@H](CCC(=O)O)NC(=O)[C@H](CCCNC(=N)N)NC(=O)[C@@H](NC(=O)[C@H](C)NC(=O)[C@H](CCC(=O)O)NC(=O)[C@H](CCCCN)NC(=O)[C@H](CCC(=O)O)NC(=O)[C@H](CCSC)NC(=O)[C@H](Cc1ccc(O)cc1)NC(=O)[C@@H](NC(=O)[C@H](CO)NC(=O)[C@H](Cc1ccc(O)cc1)NC(=O)[C@H](CC(=O)O)NC(=O)[C@H](CO)NC(=O)[C@@H](NC(=O)[C@H](Cc1ccccc1)NC(=O)[C@@H](NC(=O)CNC(=O)[C@H](CCC(=O)O)NC(=O)C(C)(C)NC(=O)[C@@H](N)Cc1ccc(O)cc1)[C@@H](C)O)[C@@H](C)O)[C@@H](C)CC)C(C)C)C(=O)N[C@@H](C)C(=O)N[C@@H](Cc1c[nH]c2ccccc12)C(=O)N[C@@H](CC(C)C)C(=O)N[C@H](C(=O)N[C@@H](CCCCN)C(=O)NCC(=O)NCC(=O)N1CCC[C@H]1C(=O)N[C@@H](CO)C(=O)N[C@@H](CO)C(=O)NCC(=O)N[C@@H](C)C(=O)N1CCC[C@H]1C(=O)N1CCC[C@H]1C(=O)N1CCC[C@H]1C(=O)N[C@@H](CO)C(=O)N[C@@H](CCCCN)C(N)=O)C(C)C` [Compound 066], for which, in experiment [1], the EC50 amounted to 2.5 nM and the “GLP-1 Receptor Relative Potency” value is listed as 43.7. In experiment [2], the “GIP Receptor Relative Potency” value stood at 50.
For the compound `CC[C@H](C)[C@H](NC(=O)[C@H](Cc1ccccc1)NC(=O)[C@H](CCC(=O)O)NC(=O)[C@@H]1CCC(=O)NCCCC[C@H](NC(=O)[C@H](CCC(=O)O)NC(=O)[C@H](CCSC)NC(=O)[C@H](Cc2ccc(O)cc2)NC(=O)[C@@H](NC(=O)[C@H](CO)NC(=O)[C@H](Cc2ccc(O)cc2)NC(=O)[C@H](CC(=O)O)NC(=O)[C@H](CO)NC(=O)[C@@H](NC(=O)[C@H](Cc2ccccc2)NC(=O)[C@@H](NC(=O)CNC(=O)[C@H](CCC(=O)O)NC(=O)C(C)(C)NC(=O)[C@@H](N)Cc2ccc(O)cc2)[C@@H](C)O)[C@@H](C)O)[C@@H](C)CC)C(=O)N[C@@H](CCC(=O)O)C(=O)N[C@@H](C)C(=O)N[C@@H](C(C)C)C(=O)N1)C(=O)N[C@@H](C)C(=O)N[C@@H](Cc1c[nH]c2ccccc12)C(=O)N[C@@H](CC(C)C)C(=O)N[C@H](C(=O)N[C@@H](CCCCN)C(=O)NCC(N)=O)C(C)C` [Compound 053-2] (H-Y[Aib]EGTFTSDYSIYMEKEAVEEFIAWLVKG-NH2; lactam 16-20; N-terminus assumed), in experiment [1], the response was half-maximal at 2.95 nM (EC50) and the “GLP-1 Receptor Relative Potency” value worked out at 37. Also, the “GIP Receptor Relative Potency” value in experiment [2] is recorded as 35.4.
`CC[C@H](C)[C@H](NC(=O)[C@H](Cc1ccccc1)NC(=O)[C@H](CCC(=O)O)NC(=O)[C@H](CCCNC(=N)N)NC(=O)[C@@H](NC(=O)[C@H](C)NC(=O)[C@H](CCC(=O)O)NC(=O)[C@@H]1CCCCNC(=O)CC[C@H](NC(=O)[C@H](CO)NC(=O)[C@H](Cc2ccc(O)cc2)NC(=O)[C@H](CC(=O)O)NC(=O)[C@H](CO)NC(=O)[C@@H](NC(=O)[C@H](Cc2ccccc2)NC(=O)[C@@H](NC(=O)CNC(=O)[C@H](CCC(=O)O)NC(=O)C(C)(C)NC(=O)[C@@H](N)Cc2ccc(O)cc2)[C@@H](C)O)[C@@H](C)O)C(=O)N[C@@H](Cc2ccc(O)cc2)C(=O)N[C@@H](CCSC)C(=O)N[C@@H](CCC(=O)O)C(=O)N1)C(C)C)C(=O)N[C@@H](C)C(=O)N[C@@H](Cc1c[nH]c2ccccc12)C(=O)N[C@@H](CC(C)C)C(=O)N[C@H](C(=O)N[C@@H](CCCCN)C(=O)NCC(=O)NCC(=O)N1CCC[C@H]1C(=O)N[C@@H](CO)C(=O)N[C@@H](CO)C(=O)NCC(=O)N[C@@H](C)C(=O)N1CCC[C@H]1C(=O)N1CCC[C@H]1C(=O)N1CCC[C@H]1C(=O)N[C@@H](CO)C(N)=O)C(C)C` [Compound 081] (H-Y[Aib]EGTFTSDYSEYMEKEAVREFIAWLVKGGPSSGAPPPS-NH2; lactam 12-16): in experiment [1], the EC50 worked out at 0.77 nM and the “GLP-1 Receptor Relative Potency” value turned out to be 124.3. In experiment [2], the EC50 is 0.044 nM and the “GIP Receptor Relative Potency” value amounted to 250.
For `CCCCCCCCCCCCCCCC(=O)N[C@@H](CCC(=O)NCCCC[C@H](NC(=O)[C@@H](NC(=O)[C@H](CC(C)C)NC(=O)[C@H](Cc1c[nH]c2ccccc12)NC(=O)[C@H](C)NC(=O)[C@@H](NC(=O)[C@H](Cc1ccccc1)NC(=O)[C@H](CCC(=O)O)NC(=O)[C@H](CCCNC(=N)N)NC(=O)[C@@H](NC(=O)[C@H](C)NC(=O)[C@H](CCC(=O)O)NC(=O)[C@H](CCCCN)NC(=O)[C@H](CCC(=O)O)NC(=O)[C@H](CCSC)NC(=O)[C@H](Cc1ccc(O)cc1)NC(=O)[C@@H](NC(=O)[C@H](CO)NC(=O)[C@H](Cc1ccc(O)cc1)NC(=O)[C@H](CC(=O)O)NC(=O)[C@H](CO)NC(=O)[C@@H](NC(=O)[C@H](Cc1ccccc1)NC(=O)[C@@H](NC(=O)CNC(=O)[C@H](CCC(=O)O)NC(=O)C(C)(C)NC(=O)[C@@H](N)Cc1ccc(O)cc1)[C@@H](C)O)[C@@H](C)O)[C@@H](C)CC)C(C)C)[C@@H](C)CC)C(C)C)C(=O)NCC(=O)NCC(=O)N1CCC[C@H]1C(=O)N[C@@H](CO)C(=O)N[C@@H](CO)C(=O)NCC(=O)N[C@@H](C)C(=O)N1CCC[C@H]1C(=O)N1CCC[C@H]1C(=O)N1CCC[C@H]1C(=O)N[C@@H](CO)C(N)=O)C(=O)O` [Compound 094] the same measures were 0.67 nM, 149.2, 0.85 nM and 4.7.
For the compound “Tyr-Aib-Glu-Gly-Thr-Phe-Thr-Ser-Asp-Tyr-Ser-Ile-Tyr-Nle-Glu-Lys-Ile-His-Gln-Gln-Asp-Phe-Val-Asn-Trp-Leu-Val-Arg-Gln(NH2) (Y[Aib]EGTFTSDYSIY[Nle]EKIHQQDFVNWLVRQ-NH2) [Analog 021]”, in experiment [1], the “GLP-1R activation (GLP-1 activity) against native GLP-1” value is recorded as “around 5%”. Besides, the “GIPR activation (GIP activity) against native GIP” value in experiment [2] (CHO/hGIPR cell assay) is 21%.

The values are drawn from patent US9453062B2, “Glucose dependent insulinotropic polypeptide analogs, pharmaceutical compositions and use thereof” (Beijing Hanmi Pharmaceutical Co., Ltd., priority 2011, dated 2016).
